# Results reported in patent US20240016804A1, “METHODS AND MATERIALS FOR ASSESSING AND TREATING HYPERTENSIVE DISORDERS” (Mayo Foundation for Medical Education and Research, priority 2019, published 2024).
# Test system: PE-MSC
# Test: Apoptosis assay for MSC (Annexin V, IncuCyte S3, Red Object Count), PE-MSC
# Assay type: cell-based, human
# Settings: dose response 1, 2, 5 and 10 μM, 24 hours
# Protocol: MSC isolation from adipose tissue: Abdominal fat tissue (3-5 g) obtained during C-section was cultured at 37° C./5% CO2 in Advanced MEM media supplemented with 5% platelet lysate (PLTmax, Mill Creek Life Sciences, Rochester, MN), which provides a robust growth medium. The third passage of cells was used for phenotype/function analysis. MSC were positive to CD90, CD44, and CD105, negative to CD34, CD31, and CD45 by Flow Cytometry (FlowSight™, Amnis, Seattle, WA), and were able to transdifferentiate into adipocytes, chondrocytes, and osteocytes. For studies in non-pregnant subjects, MSC were isolated from three healthy kidney donors at time of kidney donation.
# Apoptosis was assessed by Annexin V reagent (Essen Bioscience) using the IncuCyte S3 Live-Cell Analysis System (Essen Bioscience).
# The initial dose response experiments were performed to determine the optimal Dasatinib concentration using the apoptotic assay and IncuCyte S3 Live-Cell Analysis System (Essen Bioscience). Approximately 1×10^6 MSC (PE and NP) in passage #4, were treated with the senolytic drug, Dasatinib at concentrations of 1, 2, 5 and 10 μM (dissolved in 0.1% DMSO) for 24 hours. Three groups were analyzed: 1) cells incubated in media, 2) vehicle: cells treated with 0.1% DMSO, 3) cells treated with Dasatinib. […] Annexin V, added at the beginning of the treatment, labeled apoptotic cells yielding red fluorescence. […]
compound,measurement,value
Cc1nc(Nc2ncc(C(=O)Nc3c(C)cccc3Cl)s2)cc(N2CCN(CCO)CC2)n1 [Dasatinib],Optimal concentration (from ratios of apoptotic cells),1 µM
